Test results taken from US20200325505A1, “FILAMENTOUS FUNGI CAPABLE OF PRODUCING VERY LONG CHAIN FATTY ACIDS” (UT-Battelle, LLC, priority 2019, published 2020).
Residues, ends and D or L forms follow the SMILES beside them.

What was measured:
[1] = tested on: Mortierella elongata AG77; assay: Carbon source utilisation in Biolog 96-well plates, formazan formation after tetrazolium addition; format: cell-based; conditions: for Metabolized: Metabolized = more formazan formation than a control containing no carbon source, observed visually at 2 h, 24 h, 148 h; for Carbon sources that Mortierella elongata AG77 can metabolize: summary of Table 3
Method in brief: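 Scoring was by eye at 2, 24 and 148 h after tetrazolium chloride went into wells preincubated 24 h at 21 °C. Wells held lyophilised candidate carbon or nitrogen sources in pH 5.5 mineral medium lacking that nutrient, inoculated with 3 mm PDA-grown mycelial plugs. Formazan above the no-carbon control counted as metabolised and below it as toxic.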

[2] = tested on: Mortierella elongata AG77; assay: Nitrogen source utilisation in Biolog 96-well plates, formazan formation after tetrazolium addition; format: cell-based; conditions: for Metabolized: Metabolized = more formazan formation than a control containing no nitrogen source, observed visually at 2 h, 24 h, 148 h; for Nitrogen sources that Mortierella elongata AG77 can metabolize: text summary of Table 4
Experimental: Two 300 mL volumes of growth medium comprising 1 g/L KH2PO4, 1 g/L MgSO4 7H2O, 0.1 g/L CaCl2, 0.02 g/L FeNaEDTA, 0.1 g/L NaCl, and either 1 g/L NH4NO3 or 20 g/L sucrose were prepared. […] Aliquots of 200 μL of carbon-free medium or nitrogen-free medium were pipetted into each well of a set of 96-well plates previously prepared with lyophilized putative carbon or nitrogen sources (Biolog Inc., Hayward, Calif.). Inocula were prepared by perforating a culture of Mortierella elongata AG77 grown on 20 g/L potato dextrose agar with a 3 mm diameter cork borer and separating the surface mycelial mat from the solid growth medium using tweezers. Each well was inoculated with one inoculum. Cultures were incubated at 21° C. for 24 hours to allow metabolic changes to stabilize, and then 100 μL of 3 g/L tetrazolium chloride in water was added to each well.
Conclusions were based on rate and intensity of formazan formation using the 3-(4,5-dimethylthiazol-2-yl)-2,5-diphenyltetrazolium bromide ([…]) assay. “Metabolized” indicates more formazan formation than a control containing no nitrogen source, and “Toxic” indicates less formazan formation than a control containing no nitrogen source, “Metabolized” and “Toxic” assignments are mutually exclusive. In this example, a compound may be “Metabolized” or “Toxic,” but not both.

[3] = compound as carbon source, Toxic = less formazan formation than a control containing no carbon source
[4] = compound as nitrogen source, Toxic = less formazan formation than a control containing no nitrogen source

| Compound | Toxic [1] | Metabolized ([1]; compound as carbon source) | Toxic [2] | Metabolized ([2]; compound as nitrogen source) | Nitrogen sources that Mortierella elongata AG77 can metabolize [2] | Carbon sources that Mortierella elongata AG77 can metabolize [1] | Toxic [1, 3] | Toxic [2, 4] |
| --- | --- | --- | --- | --- | --- | --- | --- | --- |
| NC(=O)C[C@H](N)C(=O)O [L-Asparagine] | yes | no | no | no | – | – | – | – |
| C[C@H](N)C(=O)O [L-Alanine] | no | no | no | yes | can metabolize | – | – | – |
| C[C@@H](O)[C@H](N)C(=O)O [L-Threonine] | no | yes | no | no | – | can metabolize | – | – |
| C[C@H](N)C(=O)NCC(=O)O [L-Alanyl-Glycine] (H-Ala-Gly-OH) | no | no | no | no | – | – | – | – |
| NCCCCC(=O)O [δ-Amino Valeric Acid] | no | no | no | no | – | – | – | – |
| NCC(=O)N[C@@H](CCC(=O)O)C(=O)O [Glycyl-L-Glutamic Acid] (H-Gly-Glu-OH) | – | no | – | no | – | – | no | no |
| N[C@@H](CO)C(=O)O [L-Serine] | no | no | no | no | – | – | – | – |
| N[C@@H](CC(=O)O)C(=O)O [L-Aspartic Acid] | no | yes | no | no | – | can metabolize | – | – |
| O=C1CC[C@@H](C(=O)O)N1 [L-Pyroglutamic Acid] | no | no | no | no | – | – | – | – |
| CC(=O)N[C@H]1C(O)O[C@H](CO)[C@H](O)[C@@H]1O (stereo partly drawn) [N-Acetyl-D-Galactosamine] | – | no | – | yes | can metabolize | – | no | no |
| Nc1ncnc2c1ncn2[C@@H]1O[C@H](CO)[C@@H](O)[C@H]1O [Adenosine] | no | yes | no | no | – | can metabolize | – | – |
| CC(C)[C@H](N)C(=O)O [L-Valine] | no | no | no | no | – | – | – | – |
| Cc1cn([C@H]2C[C@H](O)[C@@H](CO)O2)c(=O)[nH]c1=O [Thymidine] | no | no | no | no | – | – | – | – |
| N[C@H]1C(O)O[C@H](CO)[C@@H](O)[C@@H]1O (stereo partly drawn) [D-Glucosamine] | no | yes | no | no | – | can metabolize | – | – |
| CC(=O)N[C@H]1C(O)O[C@H](CO)[C@@H](O)[C@@H]1O (stereo partly drawn) [N-Acetyl-D-Glucosamine] | – | yes | – | yes | can metabolize | can metabolize | no | no |
| N=C(N)NCCC[C@H](N)C(=O)O [L-Arginine] | no | yes | no | no | – | can metabolize | – | – |
| N[C@@H](CCC(=O)O)C(=O)O [L-Glutamic Acid] | – | no | – | yes | can metabolize | – | no | no |

| Compound | Toxic [1] | Metabolized ([1]; compound as carbon source) | Toxic [2] | Metabolized ([2]; compound as nitrogen source) | Nitrogen sources that Mortierella elongata AG77 can metabolize [2] | Carbon sources that Mortierella elongata AG77 can metabolize [1] | Toxic [1, 3] | Toxic [2, 4] |
| --- | --- | --- | --- | --- | --- | --- | --- | --- |
| CSCC[C@H](N)C(=O)O [L-Methionine] | no | no | no | no | – | – | – | – |
| N[C@@H](Cc1ccccc1)C(=O)O [L-Phenylalanine] | – | yes | – | no | – | can metabolize | no | no |
| NC(=O)[C@@H](O)[C@@H](O)[C@H](O)[C@@H](O)C=O [Glucuronamide] | – | yes | – | no | – | can metabolize | no | no |
| O=C(O)[C@@H]1CCCN1 [L-Proline] | no | yes | no | yes | can metabolize | can metabolize | – | – |
| CC(=O)N[C@@H](CCC(=O)O)C(=O)O [N-Acetyl-L-Glutamic Acid] | no | yes | no | no | – | can metabolize | – | – |
| NCC(=O)O [Glycine] | no | no | no | yes | can metabolize | – | – | – |
| NC(=O)CC[C@H](N)C(=O)O [L-Glutamine] | yes | no | no | yes | can metabolize | – | – | – |
| OC[C@H]1O[C@@H](n2cnc3c(O)ncnc32)[C@H](O)[C@@H]1O [Inosine] | – | yes | – | no | – | can metabolize | no | no |
| N[C@H](CO)C(=O)O [D-Serine] | no | no | no | no | – | – | – | – |
| N[C@@H](CCO)C(=O)O [L-Homoserine] | no | no | no | yes | can metabolize | – | – | – |
| NCCO [2-Aminoethanol] | – | yes | – | no | – | can metabolize | no | no |
| NCCCC(=O)O [γ-Amino Butyric Acid] | no | no | no | yes | can metabolize | – | – | – |
| N[C@@H](Cc1c[nH]cn1)C(=O)O [L-Histidine] | no | no | no | yes | can metabolize | – | – | – |
| NCCc1ccc(O)cc1 [Tyramine] | no | yes | no | no | – | can metabolize | – | – |
| NCCCCN [Putrescine] | no | yes | no | no | – | can metabolize | – | – |
| N[C@H](CC(=O)O)C(=O)O [D-Aspartic Acid] | no | yes | no | no | – | can metabolize | – | – |
| CC(C)C[C@H](N)C(=O)O [L-Leucine] | no | no | no | no | – | – | – | – |
